# Data: patent US12180518B2, “RNA polymerase variants for co-transcriptional capping” (priority 2019, dated 2024)
# How the values were obtained:
# Format in all cases: biochemical, bacteriophage T7
# [1] = biological target: T7 RNA polymerase variant G47A/D506W+C-terminal G (D506W), SEQ ID NO: 57 (Escherichia phage T7, UniProt P00573, D506W/G47A); test: GAG/e6A/m6A cap analog incorporation in IVT reactions, LC-MS % capped RNA (D506W); conditions: 5 mM of each NTP
# Protocol: (§1) In vitro transcription reactions were performed using DNA template, one of three cap analogs (GAG cap, m6A cap, and e6A cap) at varying concentrations, and (1) a G47A+C-terminal G RNA polymerase variant (control polymerase variant; G47A+C-terminal G), (2) a G47A/D506W+C-terminal G RNA polymerase variant (D506W), (3) a G47A/S628W+C-terminal G RNA polymerase variant (S628W), (4) a G47A/D653W+C-terminal G RNA polymerase variant (D653W), and (5) a G47A/P657W+C-terminal G RNA polymerase variant (P657W). IVT reactions using the m6A and e6A cap analogs were incorporated using a DNA template that encodes for a 5′A followed by G. Following the IVT reactions, each experiment was subjected to LC-MS to determine the % capped RNA (i.e., percent of transcribed RNA comprising a cap).
# (§2) Conversely, even at 5 mM e6A, the control variant provided ˜40% of total RNA with incorporated e6A.
# (§3) Conversely, even at 5 mM m6A, the control variant provided less than 30% of total RNA with incorporated m6A.
# [2] = biological target: T7 RNA polymerase variant G47A/P657W+C-terminal G (P657W), SEQ ID NO: 60 (Escherichia phage T7, UniProt P00573, G47A/P657W); test: GAG/e6A/m6A cap analog incorporation in IVT reactions, LC-MS % capped RNA (P657W); conditions: 5 mM of each NTP
# Sequence of T7 RNA polymerase variant G47A/P657W+C-terminal G (P657W), SEQ ID NO: 60 (P00573 other isoform, or with tags, fused parts or gaps G47A/P657W): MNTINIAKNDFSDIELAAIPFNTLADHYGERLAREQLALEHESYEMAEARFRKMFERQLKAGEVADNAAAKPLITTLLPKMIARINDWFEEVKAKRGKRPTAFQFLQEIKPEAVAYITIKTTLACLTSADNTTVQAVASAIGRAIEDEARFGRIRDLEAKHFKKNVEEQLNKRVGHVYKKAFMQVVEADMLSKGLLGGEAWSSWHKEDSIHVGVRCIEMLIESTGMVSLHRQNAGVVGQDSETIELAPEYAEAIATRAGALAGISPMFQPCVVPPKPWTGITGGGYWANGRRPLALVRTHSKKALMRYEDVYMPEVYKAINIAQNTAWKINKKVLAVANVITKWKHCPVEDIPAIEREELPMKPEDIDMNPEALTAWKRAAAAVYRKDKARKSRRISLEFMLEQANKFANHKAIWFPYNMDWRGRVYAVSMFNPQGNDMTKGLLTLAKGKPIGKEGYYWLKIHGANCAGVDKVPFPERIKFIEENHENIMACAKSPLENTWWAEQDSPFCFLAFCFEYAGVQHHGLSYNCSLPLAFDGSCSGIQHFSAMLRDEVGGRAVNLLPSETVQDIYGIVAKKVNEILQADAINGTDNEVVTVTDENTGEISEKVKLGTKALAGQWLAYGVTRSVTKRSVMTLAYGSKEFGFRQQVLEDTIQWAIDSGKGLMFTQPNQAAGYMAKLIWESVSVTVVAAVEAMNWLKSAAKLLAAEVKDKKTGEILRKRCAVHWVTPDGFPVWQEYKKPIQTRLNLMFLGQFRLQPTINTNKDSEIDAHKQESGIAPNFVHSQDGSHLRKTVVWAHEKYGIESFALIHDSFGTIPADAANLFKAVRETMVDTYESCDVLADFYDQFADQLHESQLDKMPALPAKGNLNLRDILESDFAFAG
# Protocol: as §1, §2, §3
# [3] = biological target: T7 RNA polymerase variant G47A/S628W+C-terminal G (S628W), SEQ ID NO: 58 (Escherichia phage T7, UniProt P00573, G47A/S628W); test: GAG/e6A/m6A cap analog incorporation in IVT reactions, LC-MS % capped RNA (S628W); conditions: 5 mM of each NTP
# Sequence of T7 RNA polymerase variant G47A/S628W+C-terminal G (S628W), SEQ ID NO: 58 (P00573 other isoform, or with tags, fused parts or gaps G47A/S628W): as the sequence (P00573 other isoform, or with tags, fused parts or gaps G47A/P657W) above, with S628W, W657P counted along it
# Protocol: as §1, §2, §3
# [4] = biological target: T7 RNA polymerase variant G47A/D653W+C-terminal G (D653W), SEQ ID NO: 59 (Escherichia phage T7, UniProt P00573, D653W/G47A); test: GAG/e6A/m6A/GGAG cap analog incorporation in IVT reactions, LC-MS % capped RNA (D653W)
# Sequence of T7 RNA polymerase variant G47A/D653W+C-terminal G (D653W), SEQ ID NO: 59 (P00573 other isoform, or with tags, fused parts or gaps G47A/D653W): as the sequence (P00573 other isoform, or with tags, fused parts or gaps G47A/P657W) above, with D653W, W657P counted along it
# Protocol: as §1, §2, §3
# Conversely, even at 7.5 mM GGAG tetranuc, the control variant provided less than 70% of total RNA with incorporated GGAG.
# [5] = EC50 = concentration for 50% cap incorporation, vs G47A+C-terminal G
# Sequence of T7 RNA polymerase variant G47A/D506W+C-terminal G (D506W), SEQ ID NO: 57 (P00573 other isoform, or with tags, fused parts or gaps G47A/D506W): as the sequence (P00573 other isoform, or with tags, fused parts or gaps G47A/P657W) above, with D506W, W657P counted along it
smiles,measurement,setting,value
CO[C@@H]1[C@H](OP(=O)(O)OC[C@H]2O[C@@H](n3cnc4c(=O)[nH]c(N)nc43)[C@H](O)[C@@H]2O)[C@@H](COP(=O)(O)OP(=O)(O)OP(=O)([O-])OC[C@H]2O[C@@H](n3c[n+](C)c4c(=O)[nH]c(N)nc43)[C@H](O)[C@@H]2O)O[C@H]1n1cnc2c(N)ncnc21 [GAG cap],"fold improvement (reduction) in EC50 for GAG cap incorporation, relative to the control variant",[1]; [5],1.28 fold
same,"fold improvement (reduction) in EC50 for GAG cap incorporation, relative to the control variant",[2]; [5],2.27 fold
same,"fold improvement (reduction) in EC50 for GAG cap incorporation, relative to the control variant",[3]; [5],1.45 fold
same,"EC50 for GAG cap incorporation, relative to the control variant (in words)","[4]; 5 mM of each NTP, vs G47A+C-terminal G",significant improvement
same,"fold improvement (reduction) in EC50 for GAG cap incorporation, relative to the control variant","[4]; 7.5 mM of each NTP, FIG. 4E, vs G47A+C-terminal G",12.3 fold
"CNc1ncnc2c1ncn2[C@@H]1O[C@H](COP(=O)(O)OP(=O)(O)OP(=O)([O-])OC[C@H]2O[C@@H](n3c[n+](C)c4c(=O)[nH]c(N)nc43)[C@H](O)[C@@H]2O)[C@@H](OP(=O)(O)OC[C@H]2O[C@@H](n3cnc4c(=O)[nH]c(N)nc43)[C@H](O)[C@@H]2O)[C@H]1OC [m6A cap, m^7Gpppm^6A2′OmepG]","effective concentration of m6A cap analog for cap incorporation, relative to control variant (in words)",[1]; FIGS. 6A-6D,lesser effective concentrations
same,"effective concentration of m6A cap analog for cap incorporation, relative to control variant (in words)",[2]; FIGS. 6A-6D,lesser effective concentrations
same,"effective concentration of m6A cap analog for cap incorporation, relative to control variant (in words)",[3]; FIGS. 6A-6D,lesser effective concentrations
same,"effective concentration of m6A cap analog for cap incorporation, relative to control variant (in words)","[4]; 5 mM of each NTP, FIGS. 6A-6D",lesser effective concentrations
CO[C@@H]1[C@H](OP(=O)(O)OC[C@H]2O[C@@H](n3cnc4c(N)ncnc43)[C@H](O)[C@@H]2OP(=O)(O)OC[C@H]2O[C@@H](n3cnc4c(=O)[nH]c(N)nc43)[C@H](O)[C@@H]2O)[C@@H](COP(=O)(O)OP(=O)(O)OP(=O)([O-])OC[C@H]2O[C@@H](n3c[n+](C)c4c(=O)[nH]c(N)nc43)[C@H](O)[C@@H]2O)O[C@H]1n1cnc2c(=O)[nH]c(N)nc21 [GGAG tetranuc],"effective concentration of GGAG tetranuc cap analog for cap incorporation, relative to control variant (in words)","[4]; 7.5 mM of each NTP, FIG. 7",lesser effective concentrations
"CCNc1ncnc2c1ncn2[C@@H]1O[C@H](COP(=O)(O)OP(=O)(O)OP(=O)([O-])OC[C@H]2O[C@@H](n3c[n+](C)c4c(=O)[nH]c(N)nc43)[C@H](O)[C@@H]2O)[C@@H](OP(=O)(O)OC[C@H]2O[C@@H](n3cnc4c(=O)[nH]c(N)nc43)[C@H](O)[C@@H]2O)[C@H]1OC [e6A cap, m^7Gpppe^6A2′OmepG]","effective concentration of e6A cap analog for cap incorporation, relative to control variant (in words)",[1]; FIGS. 5A-5D,lesser effective concentrations
same,"effective concentration of e6A cap analog for cap incorporation, relative to control variant (in words)",[2]; FIGS. 5A-5D,lesser effective concentrations
same,"effective concentration of e6A cap analog for cap incorporation, relative to control variant (in words)",[3]; FIGS. 5A-5D,lesser effective concentrations
same,"effective concentration of e6A cap analog for cap incorporation, relative to control variant (in words)","[4]; 5 mM of each NTP, FIGS. 5A-5D",lesser effective concentrations
